Data published in ChEMBL document CHEMBL1134008, “Cis- and trans-N-benzyl-octahydrobenzo[g]quinolines. Adrenergic and dopaminergic activity studies” (Bioorg Med Chem Lett, 2001).
pIC50: −log10 of the molar value.

Columns and labels:
Assay type in all cases: cell membranes, Membrane; call rule not given here
[1] = molecular target: T1, D(1A) dopamine receptor (Rattus norvegicus, UniProt P18901); experiment: Inhibition of binding of [3H]SCH-23390 to Dopamine receptor D1 in rat striatal membranes at 5 uM concentration; NA is not active
T1 sequence (P18901 whole entry): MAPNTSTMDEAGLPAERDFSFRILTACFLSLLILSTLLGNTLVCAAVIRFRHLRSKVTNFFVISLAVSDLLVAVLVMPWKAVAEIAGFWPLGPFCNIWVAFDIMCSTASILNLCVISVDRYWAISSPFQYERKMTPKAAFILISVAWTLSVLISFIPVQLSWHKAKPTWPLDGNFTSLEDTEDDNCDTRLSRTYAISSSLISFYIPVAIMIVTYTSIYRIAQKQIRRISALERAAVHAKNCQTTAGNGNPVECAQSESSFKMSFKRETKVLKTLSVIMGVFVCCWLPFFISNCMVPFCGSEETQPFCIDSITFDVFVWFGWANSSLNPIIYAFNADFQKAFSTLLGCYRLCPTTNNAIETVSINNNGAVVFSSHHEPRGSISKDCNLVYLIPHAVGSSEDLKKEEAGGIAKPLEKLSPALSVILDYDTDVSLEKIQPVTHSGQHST

[2] = molecular target: T2, D(2) dopamine receptor (Rattus norvegicus, UniProt P61169); experiment: Inhibition of binding of [3H]spiroperidol to Dopamine receptor D2 in rat striatal membranes at 5 uM concentration; NA is not active
T2 sequence (P61169 whole entry): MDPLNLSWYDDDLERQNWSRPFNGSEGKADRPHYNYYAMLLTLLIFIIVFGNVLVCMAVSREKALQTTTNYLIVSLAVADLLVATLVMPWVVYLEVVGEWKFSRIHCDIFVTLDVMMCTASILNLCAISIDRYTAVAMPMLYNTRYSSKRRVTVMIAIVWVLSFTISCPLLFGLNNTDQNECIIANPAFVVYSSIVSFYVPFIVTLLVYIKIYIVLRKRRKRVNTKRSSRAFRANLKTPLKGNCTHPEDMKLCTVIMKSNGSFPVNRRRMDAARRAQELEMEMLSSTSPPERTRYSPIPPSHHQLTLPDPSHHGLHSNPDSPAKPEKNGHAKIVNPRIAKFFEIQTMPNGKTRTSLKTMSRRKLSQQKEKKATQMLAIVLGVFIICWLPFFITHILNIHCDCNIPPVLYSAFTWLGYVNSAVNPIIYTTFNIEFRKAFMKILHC

[3] = molecular target: T3, Adrenergic receptor alpha-2 (Rattus norvegicus, UniProt P22086+P19328+P22909); experiment: Inhibition of binding of [3H]rauwolscine to Alpha-2 adrenergic receptor in rat cortical membranes
T3 sequence (P22086 whole entry): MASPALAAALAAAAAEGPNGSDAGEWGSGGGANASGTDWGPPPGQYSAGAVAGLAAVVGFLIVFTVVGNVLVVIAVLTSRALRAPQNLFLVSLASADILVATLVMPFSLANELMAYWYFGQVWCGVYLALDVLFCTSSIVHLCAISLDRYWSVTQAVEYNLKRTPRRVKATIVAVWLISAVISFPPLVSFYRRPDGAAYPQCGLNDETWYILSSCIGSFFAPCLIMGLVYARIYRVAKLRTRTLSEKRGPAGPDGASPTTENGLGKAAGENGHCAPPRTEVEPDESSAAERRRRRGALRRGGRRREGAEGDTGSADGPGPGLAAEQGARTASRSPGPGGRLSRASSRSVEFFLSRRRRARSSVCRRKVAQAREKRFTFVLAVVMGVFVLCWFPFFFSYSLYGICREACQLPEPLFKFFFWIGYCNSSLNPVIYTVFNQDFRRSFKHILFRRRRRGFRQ
T3 sequence (P19328 whole entry): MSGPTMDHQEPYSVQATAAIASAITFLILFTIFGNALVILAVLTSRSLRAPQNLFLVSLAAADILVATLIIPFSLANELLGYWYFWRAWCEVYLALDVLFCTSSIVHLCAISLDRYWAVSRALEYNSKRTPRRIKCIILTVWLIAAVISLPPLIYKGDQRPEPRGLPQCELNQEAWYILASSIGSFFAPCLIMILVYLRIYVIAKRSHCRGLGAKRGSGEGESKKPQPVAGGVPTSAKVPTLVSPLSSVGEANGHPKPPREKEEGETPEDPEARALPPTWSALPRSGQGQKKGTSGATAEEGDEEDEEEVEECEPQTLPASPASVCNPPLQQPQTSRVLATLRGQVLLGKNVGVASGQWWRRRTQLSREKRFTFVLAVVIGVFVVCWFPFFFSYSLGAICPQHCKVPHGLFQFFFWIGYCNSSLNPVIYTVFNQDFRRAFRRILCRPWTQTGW
T3 sequence (P22909 whole entry): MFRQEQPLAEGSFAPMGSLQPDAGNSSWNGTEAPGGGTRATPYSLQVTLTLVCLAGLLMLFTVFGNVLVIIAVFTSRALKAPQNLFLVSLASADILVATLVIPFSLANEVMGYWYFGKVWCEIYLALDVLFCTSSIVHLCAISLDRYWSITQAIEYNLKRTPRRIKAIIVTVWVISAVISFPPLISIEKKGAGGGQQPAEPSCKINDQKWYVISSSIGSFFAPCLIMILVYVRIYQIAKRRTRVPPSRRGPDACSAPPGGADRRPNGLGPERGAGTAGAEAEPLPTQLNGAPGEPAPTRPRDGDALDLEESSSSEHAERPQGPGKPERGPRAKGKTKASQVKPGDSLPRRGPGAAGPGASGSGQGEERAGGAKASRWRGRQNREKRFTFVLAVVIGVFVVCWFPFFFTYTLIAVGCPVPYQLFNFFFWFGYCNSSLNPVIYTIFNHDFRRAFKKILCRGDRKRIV

[4] = molecular target: T2, D(2) dopamine receptor; experiment: Inhibition of binding of [3H]spiroperidol to Dopamine receptor D2 in rat striatal membranes
[5] = molecular target: T4, Adrenergic receptor alpha-1 (Rattus norvegicus, UniProt P15823+P23944+P43140); experiment: Inhibition of binding of [3H]prazosin to Alpha-1 adrenergic receptor in rat cortical membranes
T4 sequence (P15823 whole entry): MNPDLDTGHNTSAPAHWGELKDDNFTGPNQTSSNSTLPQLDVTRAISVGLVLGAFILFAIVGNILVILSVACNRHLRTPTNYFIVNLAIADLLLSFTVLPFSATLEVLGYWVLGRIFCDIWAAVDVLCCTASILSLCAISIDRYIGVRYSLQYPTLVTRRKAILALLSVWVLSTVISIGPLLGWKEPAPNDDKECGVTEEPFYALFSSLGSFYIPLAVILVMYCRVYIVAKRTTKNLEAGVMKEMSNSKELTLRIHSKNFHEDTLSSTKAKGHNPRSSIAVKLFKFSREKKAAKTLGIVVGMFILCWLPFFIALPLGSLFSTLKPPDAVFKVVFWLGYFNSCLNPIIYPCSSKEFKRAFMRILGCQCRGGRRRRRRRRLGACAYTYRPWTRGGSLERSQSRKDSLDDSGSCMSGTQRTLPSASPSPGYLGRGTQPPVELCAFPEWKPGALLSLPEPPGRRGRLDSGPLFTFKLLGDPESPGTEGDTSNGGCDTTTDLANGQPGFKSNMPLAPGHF
T4 sequence (P23944 whole entry): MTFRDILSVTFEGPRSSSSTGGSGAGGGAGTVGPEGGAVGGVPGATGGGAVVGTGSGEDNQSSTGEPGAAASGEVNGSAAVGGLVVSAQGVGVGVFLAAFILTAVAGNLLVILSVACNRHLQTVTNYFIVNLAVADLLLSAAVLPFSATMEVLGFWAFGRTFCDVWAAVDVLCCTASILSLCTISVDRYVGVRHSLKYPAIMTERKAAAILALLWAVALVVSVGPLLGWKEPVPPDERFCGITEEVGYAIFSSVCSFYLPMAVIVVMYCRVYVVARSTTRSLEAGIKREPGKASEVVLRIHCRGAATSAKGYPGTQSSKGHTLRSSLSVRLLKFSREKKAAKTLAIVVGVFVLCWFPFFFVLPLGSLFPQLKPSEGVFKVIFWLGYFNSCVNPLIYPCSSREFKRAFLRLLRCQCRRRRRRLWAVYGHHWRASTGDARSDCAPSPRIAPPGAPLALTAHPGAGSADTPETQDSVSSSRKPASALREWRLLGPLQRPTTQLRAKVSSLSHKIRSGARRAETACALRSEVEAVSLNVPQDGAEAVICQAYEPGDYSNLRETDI
T4 sequence (P43140 whole entry): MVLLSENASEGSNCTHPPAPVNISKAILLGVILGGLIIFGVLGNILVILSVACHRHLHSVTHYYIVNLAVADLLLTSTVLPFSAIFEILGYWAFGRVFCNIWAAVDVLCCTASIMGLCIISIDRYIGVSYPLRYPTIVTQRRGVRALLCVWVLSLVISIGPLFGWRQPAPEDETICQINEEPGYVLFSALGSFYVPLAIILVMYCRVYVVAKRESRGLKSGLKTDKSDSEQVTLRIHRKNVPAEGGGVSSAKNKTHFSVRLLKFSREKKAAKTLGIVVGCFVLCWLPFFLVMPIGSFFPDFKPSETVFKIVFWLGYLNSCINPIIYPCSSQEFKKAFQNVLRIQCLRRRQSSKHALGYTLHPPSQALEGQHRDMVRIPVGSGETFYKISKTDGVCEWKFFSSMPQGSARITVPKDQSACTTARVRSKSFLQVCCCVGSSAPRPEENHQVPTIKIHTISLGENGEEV

[6] = molecular target: T1, D(1A) dopamine receptor; experiment: Inhibition of binding of [3H]SCH-23390 to Dopamine receptor D1 in rat striatal membranes

SMILES: c1ccc2c(c1)CC1CCCNC1C2 (stereo unspecified)
- IC50 [1]: Not Active
- IC50 [2]: Not Active
- IC50 [3]: 130 µM

SMILES: NC1CCc2c(ccc(O)c2O)C1 (racemic)
- pIC50 [4]: 6.15

SMILES: COc1cccc2c1CC1CCCN(Cc3ccccc3)C1C2 (stereo in doubt; cis)
- IC50 [1]: Not Active
- IC50 [2]: Not Active
- IC50 [3]: 38 µM
- IC50 [5]: 667 µM

SMILES: c1ccc(CN2CCCC3Cc4ccccc4CC32)cc1 (stereo in doubt; cis)
- IC50 [1]: Not Active
- IC50 [3]: 214 µM
- IC50 [5]: 739 µM

SMILES: COc1cccc2c1CC1CCCN(Cc3ccccc3)C1C2 (stereo in doubt; trans)
- pIC50 [6]: 6.35
- IC50 [3]: 6 µM
- IC50 [5]: 588 µM

SMILES: c1ccc(CN2CCCC3Cc4ccccc4CC32)cc1 (stereo in doubt; trans)
- pIC50 [6]: 5.92
- IC50 [2]: Not Active
- IC50 [3]: 5.9 µM
- IC50 [5]: 218 µM

SMILES: COc1cccc2c1CC1CCCNC1C2 (trans isomer)
- IC50 [1]: Not Active
- IC50 [2]: Not Active
- IC50 [3]: 67.5 µM
